Experimental data published in PMC12137875 (Nature Communications, 2025).
Where two headings read alike, the source gives them in different places.

Key:
[1] = target: T1, hURAT1 (Homo sapiens, UniProt Q96S37); type: cell-based; conditions: for KT urate / Vmax: fit of the data set with this inhibitor, 95% CI; for Mode of inhibition of [14C]-urate uptake: competitive versus non-competitive fits
T1 sequence (Q96S37 1-553): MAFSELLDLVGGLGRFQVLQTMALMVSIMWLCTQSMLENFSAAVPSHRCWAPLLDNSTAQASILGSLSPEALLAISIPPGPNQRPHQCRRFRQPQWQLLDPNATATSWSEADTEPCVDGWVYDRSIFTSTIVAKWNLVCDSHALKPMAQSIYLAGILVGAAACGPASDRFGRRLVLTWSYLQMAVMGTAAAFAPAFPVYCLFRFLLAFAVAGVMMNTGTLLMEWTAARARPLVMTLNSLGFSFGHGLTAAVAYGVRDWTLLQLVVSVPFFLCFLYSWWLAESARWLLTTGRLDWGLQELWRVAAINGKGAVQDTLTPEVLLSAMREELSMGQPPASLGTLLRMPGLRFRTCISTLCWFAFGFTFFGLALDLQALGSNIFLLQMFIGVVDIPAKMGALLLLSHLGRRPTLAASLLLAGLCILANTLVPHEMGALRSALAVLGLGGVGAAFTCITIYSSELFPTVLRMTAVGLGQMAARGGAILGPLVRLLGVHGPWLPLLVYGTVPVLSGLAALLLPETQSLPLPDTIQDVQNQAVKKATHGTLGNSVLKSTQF

[2] = tested on: URAT1CS; type: cell-based; conditions: HEK293T cells expressing hURAT1 versus URAT1CS

KT urate ([1]; Competitive model) | Vmax ([1]; Competitive model) | KT urate ([1]; Non-competitive model) | Vmax ([1]; Non-competitive model) | Mode of inhibition of [14C]-urate uptake [1] | Inhibitor binding to URAT1CS as judged from IC50 [2] | Structure (SMILES)
26.08 [11.29–48.59] µM | 1591 [1355–1846] pmol min^−1 mg^−1 | 32.4 [20.7–47.9] µM | 1700 [1530–1881] pmol min^−1 mg^−1 | non-competitively | high affinity | CCc1oc2ccccc2c1C(=O)c1cc(Br)c(O)c(Br)c1 [BBR, benzbromarone]
162.8 [126.4–210.1] µM | 3625 [3335–3955] pmol min^−1 mg^−1 | 175.1 [148.8–206.5] µM | 3725 [3522–3947] pmol min^−1 mg^−1 | non-competitively | – | O=C(O)CSc1nnc(Br)n1-c1ccc(C2CC2)c2ccccc12 [LESU, lesinurad]
